Here are results for 10 molecules from patent US20230406885A1, “CYCLIC PEPTIDES FOR TRAPPING INTERLEUKIN-1 BETA” (MERCK SHARP & DOHME LLC, priority 2022, published 2023).

Where a SMILES comes first, the peptide text is derived from it. [ ]: non-standard residue; d: D form. Bip(4'-COOH) = N[C@@H](Cc1ccc(-c2ccc(C(=O)O)cc2)cc1)C(=O)O; 1Nal(3S-Me) = C[C@@H](c1cccc2ccccc12)[C@H](N)C(=O)O; Ala(pyrimidin-5-yl) = N[C@@H](Cc1cncnc1)C(=O)O; Phe(4-COOH) = N[C@@H](Cc1ccc(C(=O)O)cc1)C(=O)O; Trp(7-aza) = N[C@@H](Cc1c[nH]c2ncccc12)C(=O)O; h3Pal(5-CN) = N#Cc1cncc(CC[C@H](N)C(=O)O)c1; Pro(4R-NH2) = N[C@H]1CN[C@H](C(=O)O)C1; Ala(4-THP) = N[C@@H](CC1CCOCC1)C(=O)O; hTyr = N[C@@H](CCc1ccc(O)cc1)C(=O)O; dDab = NCC[C@@H](N)C(=O)O; dNMeA = CN[C@H](C)C(=O)O; Dap = NC[C@H](N)C(=O)O

T1 sequence (P01584 117-269): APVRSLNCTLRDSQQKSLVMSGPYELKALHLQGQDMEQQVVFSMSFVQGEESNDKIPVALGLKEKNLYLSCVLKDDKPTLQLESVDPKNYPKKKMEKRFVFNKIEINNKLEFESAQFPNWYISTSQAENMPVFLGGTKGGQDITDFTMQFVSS

This assay has as its target T1, Recombinant human IL-1β (Homo sapiens, UniProt P01584).
T1 construct: purchased BioLegend 579404
Briefly: IL-6 assay in MRC5 cells: inhibition of IL-1β induced IL-6 secretion (AlphaLISA). The class given is cell-based. As to conditions: inhibition of IL-1β induced IL-6 secretion in MRC5 cells; IL-1β pre-incubated 1 hour with compound; read-out: MRC5 IC50. As for the experimental part: Procedure for IL-6 Assay in MRC5 Cells
The inhibition of IL-1β induced IL-6 secretion was evaluated in MRC5 cells. Recombinant human IL-1β (BioLegend 579404) at 2×EC80 concentration was prepared in seeding medium, EMEM (ATCC 30-2003) with 0.025% BSA (Sigma A9576), 1× penicillin/streptomycin (Gibco 15070-063), 1×NEAA (Gibco 11140-050), 1× GlutaMax (Gibco 35050-061), and 1× sodium pyruvate (Gibco 11360-070). 20 μL of IL-1β was added to a 384-well collagen-coated plate (Corning 354664) and pre-incubated at ambient temperature for 1 hour with 200 nL of compound dispensed using an ECHO 555 liquid handler. Human lung fibroblast MRC5 cells (ATCC CCL-171) were added at a density of 3000 cells/20 μL per well. The cells were prepared by passaging three times in growth medium, EMEM (ATCC 30-2003) with 10% fetal bovine serum (Gibco 16140-071), 1× penicillin/streptomycin (Gibco 15070-063), 1×NEAA (Gibco 11140-050), 1× GlutaMax (Gibco 35050-061), and 1× sodium pyruvate (Gibco 11360-070) in collagen-coated T175 flasks (Greiner 661950) and harvested in seeding medium after 5 minutes of 0.25% trypsin-EDTA (Gibco 25200-056) digestion. The 384-well collagen-coated plate, containing a final volume of 40 μL, was incubated at 37° C., 5% CO2 overnight. 5 μL of the conditioned medium was transferred to a 384-well AlphaLISA plate (PerkinElmer 6005350) for detection of IL-6 using the human AlphaLISA IL-6 kit (PerkinElmer AL223F) as per the manufacturer's protocol. 20 μL of the acceptor bead/biotinylated antibody mix was added to the 384-well AlphaLISA plate and incubated for 1 hour at ambient temperature. The donor bead mix was protected from light and 25 μL was added to the plate and incubated for 30 minutes at ambient temperature. The AlphaLISA plate was read on an EnVision multimode plate reader (Perkin Elmer model 2104) using the AlphaScreen setting (laser exc at 680 nm and emis at 570 nm). Dose response curves and IC50 values were analyzed using a 4-parameter logistic equation in Spotfire software (Tibco, Palo Alto, CA).
(In general: Alpha assays give light when donor and acceptor beads are brought close together.)
As for `C[C@@H]1C(=O)NCC(=O)N[C@@H](Cc2ccc(-c3ccc(C(=O)O)cc3)cc2)C(=O)N[C@@H](CC2CCOCC2)C(=O)N[C@@H](CN)C(=O)N[C@H](C)C(=O)N[C@@H](CCc2cncc(C#N)c2)C(=O)N[C@@H](Cc2ccc(-c3ccc(C(=O)O)cc3)cc2)C(=O)N[C@@H](Cc2c[nH]c3ccccc23)C(=O)N[C@@H](Cc2ccc(C(=O)O)cc2)C(=O)NCC(=O)N2C[C@H](N)C[C@H]2C(=O)N[C@@H]([C@@H](C)c2cccc3ccccc23)C(=O)N[C@@H](CC(=O)O)C(=O)N1C` [Example 23] (cyclo([Bip(4'-COOH)]W[Phe(4-COOH)]G[Pro(4R-NH2)][1Nal(3S-Me)]D[dNMeA]G[Bip(4'-COOH)][Ala(4-THP)][Dap][dA][h3Pal(5-CN)])), the IC50 (usually the concentration that inhibits the measured activity by half) was found to be 0.0112 nM.

As for `C[C@@H]1C(=O)NCC(=O)N[C@@H](Cc2ccc(-c3ccc(C(=O)O)cc3)cc2)C(=O)N[C@@H](CC2CCOCC2)C(=O)N[C@@H](CN)C(=O)N[C@H](C)C(=O)N[C@@H](CCc2ccc(O)cc2)C(=O)N[C@@H](Cc2ccc(-c3ccc(C(=O)O)cc3)cc2)C(=O)N[C@@H](Cc2c[nH]c3ccccc23)C(=O)N[C@@H](Cc2ccc(C(=O)O)cc2)C(=O)NCC(=O)N2C[C@H](N)C[C@H]2C(=O)N[C@@H]([C@@H](C)c2cccc3ccccc23)C(=O)N[C@@H](CC(=O)O)C(=O)N1C` [Example 24] (cyclo([Bip(4'-COOH)]W[Phe(4-COOH)]G[Pro(4R-NH2)][1Nal(3S-Me)]D[dNMeA]G[Bip(4'-COOH)][Ala(4-THP)][Dap][dA][hTyr])), the concentration for half-maximal inhibition (IC50) was found to be 0.0291 nM.

Turning to `CC(C)C[C@@H]1NC(=O)[C@H](CCCCN)NC(=O)[C@H](Cc2ccc(-c3ccc(C(=O)O)cc3)cc2)NC(=O)CNC(=O)[C@@H](C)N(C)C(=O)[C@H](CC(=O)O)NC(=O)[C@H]([C@@H](C)c2cccc3ccccc23)NC(=O)[C@@H]2C[C@@H](N)CN2C(=O)CNC(=O)[C@H](Cc2ccc(C(=O)O)cc2)NC(=O)[C@H](Cc2c[nH]c3ccccc23)NC(=O)[C@H](Cc2ccc(-c3ccc(C(=O)O)cc3)cc2)NC(=O)[C@H](CCc2ccc(O)cc2)NC(=O)[C@@H](C)NC1=O` [Example 25] (cyclo([Bip(4'-COOH)]W[Phe(4-COOH)]G[Pro(4R-NH2)][1Nal(3S-Me)]D[dNMeA]G[Bip(4'-COOH)]KL[dA][hTyr])), the half-inhibitory concentration (IC50) was 0.0542 nM.

With `CC(C)C[C@@H]1NC(=O)[C@H](CCCCN)NC(=O)[C@H](Cc2ccc(-c3ccc(C(=O)O)cc3)cc2)NC(=O)CNC(=O)[C@@H](C)N(C)C(=O)[C@H](CC(=O)O)NC(=O)[C@H]([C@@H](C)c2cccc3ccccc23)NC(=O)[C@@H]2C[C@@H](N)CN2C(=O)CNC(=O)[C@H](Cc2ccc(C(=O)O)cc2)NC(=O)[C@H](Cc2c[nH]c3ccccc23)NC(=O)[C@H](Cc2ccc(-c3ccc(C(=O)O)cc3)cc2)NC(=O)[C@H](CCc2ccc(O)cc2)NC(=O)[C@@H](CO)NC1=O` [Example 26] (cyclo([Bip(4'-COOH)]W[Phe(4-COOH)]G[Pro(4R-NH2)][1Nal(3S-Me)]D[dNMeA]G[Bip(4'-COOH)]KL[dS][hTyr])), the IC50 stood at 0.0688 nM.

Take `C[C@@H]1C(=O)NCC(=O)N[C@@H](Cc2ccc(-c3ccc(C(=O)O)cc3)cc2)C(=O)N[C@@H](Cc2cncnc2)C(=O)N[C@@H](CN)C(=O)N[C@H](C)C(=O)N[C@@H](CCc2cncc(C#N)c2)C(=O)N[C@@H](Cc2ccc(-c3ccc(C(=O)O)cc3)cc2)C(=O)N[C@@H](Cc2c[nH]c3ccccc23)C(=O)N[C@@H](Cc2ccc(C(=O)O)cc2)C(=O)NCC(=O)N2C[C@H](N)C[C@H]2C(=O)N[C@@H]([C@@H](C)c2cccc3ccccc23)C(=O)N[C@@H](CC(=O)O)C(=O)N1C` [Example 27] (cyclo([Bip(4'-COOH)]W[Phe(4-COOH)]G[Pro(4R-NH2)][1Nal(3S-Me)]D[dNMeA]G[Bip(4'-COOH)][Ala(pyrimidin-5-yl)][Dap][dA][h3Pal(5-CN)])): the IC50 came out at 0.017 nM.

In the case of `C[C@@H]1C(=O)NCC(=O)N[C@@H](Cc2ccc(-c3ccc(C(=O)O)cc3)cc2)C(=O)N[C@@H](Cc2cncnc2)C(=O)N[C@@H](CN)C(=O)N[C@H](C)C(=O)N[C@@H](CCc2ccc(O)cc2)C(=O)N[C@@H](Cc2ccc(-c3ccc(C(=O)O)cc3)cc2)C(=O)N[C@@H](Cc2c[nH]c3ccccc23)C(=O)N[C@@H](Cc2ccc(C(=O)O)cc2)C(=O)NCC(=O)N2C[C@H](N)C[C@H]2C(=O)N[C@@H]([C@@H](C)c2cccc3ccccc23)C(=O)N[C@@H](CC(=O)O)C(=O)N1C` [Example 28] (cyclo([Bip(4'-COOH)]W[Phe(4-COOH)]G[Pro(4R-NH2)][1Nal(3S-Me)]D[dNMeA]G[Bip(4'-COOH)][Ala(pyrimidin-5-yl)][Dap][dA][hTyr])), the IC50 was 0.0393 nM.

As to `C[C@@H]1C(=O)NCC(=O)N[C@@H](Cc2ccc(-c3ccc(C(=O)O)cc3)cc2)C(=O)N[C@@H](Cc2c[nH]c3ncccc23)C(=O)N[C@@H](CN)C(=O)N[C@H](C)C(=O)N[C@@H](CCc2ccc(O)cc2)C(=O)N[C@@H](Cc2ccc(-c3ccc(C(=O)O)cc3)cc2)C(=O)N[C@@H](Cc2c[nH]c3ccccc23)C(=O)N[C@@H](Cc2ccc(C(=O)O)cc2)C(=O)NCC(=O)N2C[C@H](N)C[C@H]2C(=O)N[C@@H]([C@@H](C)c2cccc3ccccc23)C(=O)N[C@@H](CC(=O)O)C(=O)N1C` [Example 29] (cyclo([Bip(4'-COOH)]W[Phe(4-COOH)]G[Pro(4R-NH2)][1Nal(3S-Me)]D[dNMeA]G[Bip(4'-COOH)][Trp(7-aza)][Dap][dA][hTyr])), the IC50 was determined as 0.0205 nM.

Consider `C[C@@H]1C(=O)NCC(=O)N[C@@H](Cc2ccc(-c3ccc(C(=O)O)cc3)cc2)C(=O)N[C@@H](Cc2c[nH]c3ccccc23)C(=O)N[C@@H](CN)C(=O)N[C@H](C)C(=O)N[C@@H](CCc2cncc(C#N)c2)C(=O)N[C@@H](Cc2ccc(-c3ccc(C(=O)O)cc3)cc2)C(=O)N[C@@H](Cc2c[nH]c3ccccc23)C(=O)N[C@@H](Cc2ccc(C(=O)O)cc2)C(=O)NCC(=O)N2C[C@H](N)C[C@H]2C(=O)N[C@@H]([C@@H](C)c2cccc3ccccc23)C(=O)N[C@@H](CC(=O)O)C(=O)N1C` [Example 30] (cyclo([Bip(4'-COOH)]W[Phe(4-COOH)]G[Pro(4R-NH2)][1Nal(3S-Me)]D[dNMeA]G[Bip(4'-COOH)]W[Dap][dA][h3Pal(5-CN)])), for which the IC50 came out at 0.0185 nM.

Turning to `C[C@@H]1C(=O)NCC(=O)N[C@@H](Cc2ccc(-c3ccc(C(=O)O)cc3)cc2)C(=O)N[C@@H](Cc2c[nH]c3ccccc23)C(=O)N[C@@H](CN)C(=O)N[C@H](C)C(=O)N[C@@H](CCc2ccc(O)cc2)C(=O)N[C@@H](Cc2ccc(-c3ccc(C(=O)O)cc3)cc2)C(=O)N[C@@H](Cc2c[nH]c3ccccc23)C(=O)N[C@@H](Cc2ccc(C(=O)O)cc2)C(=O)NCC(=O)N2C[C@H](N)C[C@H]2C(=O)N[C@@H]([C@@H](C)c2cccc3ccccc23)C(=O)N[C@@H](CC(=O)O)C(=O)N1C` [Example 31] (cyclo([Bip(4'-COOH)]W[Phe(4-COOH)]G[Pro(4R-NH2)][1Nal(3S-Me)]D[dNMeA]G[Bip(4'-COOH)]W[Dap][dA][hTyr])), the IC50 worked out at 0.0208 nM.

Regarding `C[C@@H]1C(=O)NCC(=O)N[C@@H](Cc2ccc(-c3ccc(C(=O)O)cc3)cc2)C(=O)N[C@@H](Cc2c[nH]c3ccccc23)C(=O)NCC(=O)N[C@H](CCN)C(=O)N[C@@H](CCc2ccc(O)cc2)C(=O)N[C@@H](Cc2ccc(-c3ccc(C(=O)O)cc3)cc2)C(=O)N[C@@H](Cc2c[nH]c3ccccc23)C(=O)N[C@@H](Cc2ccc(C(=O)O)cc2)C(=O)NCC(=O)N2C[C@H](N)C[C@H]2C(=O)N[C@@H]([C@@H](C)c2cccc3ccccc23)C(=O)N[C@@H](CC(=O)O)C(=O)N1C` [Example 32] (cyclo([Bip(4'-COOH)]W[Phe(4-COOH)]G[Pro(4R-NH2)][1Nal(3S-Me)]D[dNMeA]G[Bip(4'-COOH)]WG[dDab][hTyr])), the IC50 was 0.033 nM.
